# Patent US9962447B2, “Supramolecular aggregates comprising maleimido cores” (UFPEPTIDES S.R.L., priority 2013, dated 2018)
# Experiments:
# [1] = test system: electrically stimulated mouse vas deferens; assay: Electrically stimulated mouse vas deferens
# Description: The bath temperature was set at 33° C. Tissues were continuously stimulated through two platinum ring electrodes with supramaximal rectangular pulses of 1 ms duration and 0.05 Hz frequency. A resting tension of 0.3 g was applied to the vas deferens.
# assuming a slope value equal to unity, where CR indicate the ratio between agonist potency in the presence and absence of antagonist.
# [2] = test system: electrically stimulated mouse vas deferens; conditions: versus N/OFQ; Spagnolo et al. 2007; cited from earlier work
# [3] = test system: vas deferens tissues taken from NOP(+/+) mice; assay: Electrically stimulated vas deferens from NOP(+/+) mice; set-up: species or system mouse
# Description: The bath temperature was set at 33° C. Tissues were continuously stimulated through two platinum ring electrodes with supramaximal rectangular pulses of 1 ms duration and 0.05 Hz frequency. A resting tension of 0.3 g was applied to the vas deferens. […] Following an equilibration period of 60 min, the contractions induced by electrical field stimulation were stable.
# DOP receptor = target: T1, DOP receptor (Homo sapiens, UniProt P41143); assay: Calcium mobilization in CHO cells expressing DOP receptor and GαqG66Di5; format: cell-based
# T1 construct: expressed in transfected cells; host or cells: CHO cells co-expressing GαqG66Di5
# T1 sequence (P41143 whole entry): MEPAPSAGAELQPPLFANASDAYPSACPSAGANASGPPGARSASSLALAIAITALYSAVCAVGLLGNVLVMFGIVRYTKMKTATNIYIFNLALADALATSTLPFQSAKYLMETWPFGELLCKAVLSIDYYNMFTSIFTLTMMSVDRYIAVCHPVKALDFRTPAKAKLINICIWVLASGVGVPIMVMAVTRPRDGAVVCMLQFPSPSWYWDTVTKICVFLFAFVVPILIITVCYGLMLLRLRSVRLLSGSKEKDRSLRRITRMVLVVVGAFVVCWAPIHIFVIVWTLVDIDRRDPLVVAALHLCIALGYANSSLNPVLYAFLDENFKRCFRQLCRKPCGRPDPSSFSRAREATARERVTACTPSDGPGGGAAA
# Description: (§1) Cell cultures were kept at 37° C. in 5% CO2 humidified air. In all cases experimental cultures were free from selection agents (hygromycin B, G418). When confluence was reached (3-4 days), cells were sub-cultured as required using trypsin EDTA and used for experimentation. Cells were seeded at a density of 50,000 cells/well into 96-well black, clear-bottom plates. After 24 hours incubation the cells were loaded with medium supplemented with 2.5 mM probenecid, 3 μM of the calcium sensitive fluorescent dye Fluo-4 AM and 0.01% pluronic acid, for 30 min at 37° C. Afterwards the loading solution was aspirated and 100 μl/well of assay buffer: Hank's Balanced Salt Solution (HBSS) supplemented with 20 mM HEPES, 2.5 mM probenecid and 500 μM Brilliant Black (Aldrich) was added. […] On-line additions were carried out in a volume of 50 μl/well. To facilitate drug diffusion into the wells in antagonist type experiments, the present studies were performed at 37° C. and three cycles of mixing (25 μl from each well moved up and down 3 times) were performed immediately after antagonist injection to the wells.
# (§2) Four mice were monitored in parallel. […] Animals locomotion was recorded for 60 min.
# KOP receptor = KOP receptor (Homo sapiens, UniProt P41145); assay: Calcium mobilization in CHO cells expressing KOP receptor and Gαqi5; format: cell-based; conditions: inactive = inactive up to 1 μM
# KOP receptor, sequence (P41145 whole entry, the tested form may be a part): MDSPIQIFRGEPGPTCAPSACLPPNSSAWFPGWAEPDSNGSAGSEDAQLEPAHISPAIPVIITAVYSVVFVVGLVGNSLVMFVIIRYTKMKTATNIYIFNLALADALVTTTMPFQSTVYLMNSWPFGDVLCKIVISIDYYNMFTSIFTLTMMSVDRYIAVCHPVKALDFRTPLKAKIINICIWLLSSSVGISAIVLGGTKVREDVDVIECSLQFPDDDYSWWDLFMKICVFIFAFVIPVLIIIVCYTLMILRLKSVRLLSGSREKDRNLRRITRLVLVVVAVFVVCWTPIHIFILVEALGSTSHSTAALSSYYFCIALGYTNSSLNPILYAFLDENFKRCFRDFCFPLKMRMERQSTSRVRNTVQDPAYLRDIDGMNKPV
# Description: as §1, with “Cells were maintained in culture medium consisting of Dulbecco's MEM/HAM'S F-12 (50/50) supplemented with 10% foetal calf serum, penicillin (100 IU/ml), streptomycin (100 μg/ml), fungizone (2.5 μg/ml), geneticin (G418; 200 μg/ml) and hygromycin B ([…]). Cell cultures” for “Cell cultures”, “50 μl/well. […]” for “50 μl/well. To facilitate drug diffusion into the wells in antagonist type experiments, the present studies were performed at 37° C. and three cycles of mixing (25 μl from each well moved up and down 3 times) were performed immediately after antagonist injection to the wells.”
# as §2
# human NOP receptor = human NOP receptor (Homo sapiens, UniProt P41146); assay: Calcium mobilization in CHO cells expressing human NOP receptor and Gαqi5; format: cell-based; conditions: inactive = inactive up to 1 μM
# human NOP receptor, sequence (P41146 whole entry): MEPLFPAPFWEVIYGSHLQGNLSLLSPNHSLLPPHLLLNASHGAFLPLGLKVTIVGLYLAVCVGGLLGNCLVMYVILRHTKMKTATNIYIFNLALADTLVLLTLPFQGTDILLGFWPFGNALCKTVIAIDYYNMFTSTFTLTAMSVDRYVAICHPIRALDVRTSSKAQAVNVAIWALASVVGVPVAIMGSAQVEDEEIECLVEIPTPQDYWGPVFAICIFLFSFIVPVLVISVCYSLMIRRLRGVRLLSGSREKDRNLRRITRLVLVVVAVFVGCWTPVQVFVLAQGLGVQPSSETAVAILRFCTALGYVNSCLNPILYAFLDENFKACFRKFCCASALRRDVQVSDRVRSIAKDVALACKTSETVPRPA
# Description: as §1, with “Cells were maintained in culture medium consisting of Dulbecco's MEM/HAM'S F-12 (50/50) supplemented with 10% foetal calf serum, penicillin (100 IU/ml), streptomycin (100 μg/ml), fungizone (2.5 μg/ml), geneticin (G418; 200 μg/ml) and hygromycin B ([…]). Cell cultures” for “Cell cultures”
# as §2
# [4] = test system: vas deferens tissues taken from NOP(−/−) mice; assay: Electrically stimulated vas deferens from NOP(−/−) mice; set-up: species or system mouse
# Description: The mouse vas deferens were prepared as previously described (Calto et al., Eur J Pharmacol. 311, (1996) R3-5). Tissues were suspended in 5 ml organ baths containing heated Krebs solution (composition in mM: NaCl 118.5, KCl 4.7, KH2PO4 1.2, NaHCO3 25, glucose 10 and CaCl2 2.5) oxygenated with 95% O2 and 5% CO2. The bath temperature was set at 33° C. Tissues were continuously stimulated through two platinum ring electrodes with supramaximal rectangular pulses of 1 ms duration and 0.05 Hz frequency. A resting tension of 0.3 g was applied to the vas deferens. The electrically evoked contractions (twitches) were measured isotonically with a strain gauge transducer (Basile 7006, UgoBasile s.r.l., Varese, Italy) and recorded with the PC based acquisition system Power Lab (ADInstrument, USA). Following an equilibration period of 60 min, the contractions induced by electrical field stimulation were stable.
# MOP receptor = MOP receptor (Homo sapiens, UniProt P35372); assay: Calcium mobilization in CHO cells expressing MOP receptor and Gαqi5; format: cell-based; conditions: inactive = inactive up to 1 μM
# MOP receptor, sequence (P35372 whole entry): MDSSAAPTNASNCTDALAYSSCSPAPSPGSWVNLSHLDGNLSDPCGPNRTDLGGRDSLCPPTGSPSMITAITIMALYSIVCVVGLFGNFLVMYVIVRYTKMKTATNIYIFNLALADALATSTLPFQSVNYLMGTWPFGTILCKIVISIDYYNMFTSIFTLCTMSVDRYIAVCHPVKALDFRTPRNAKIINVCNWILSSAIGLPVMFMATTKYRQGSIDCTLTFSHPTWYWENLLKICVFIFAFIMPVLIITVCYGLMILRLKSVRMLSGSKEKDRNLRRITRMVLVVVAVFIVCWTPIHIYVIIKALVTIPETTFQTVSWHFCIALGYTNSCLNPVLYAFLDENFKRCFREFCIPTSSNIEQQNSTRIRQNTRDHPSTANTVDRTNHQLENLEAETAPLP
# Description: as §1, §2
compound,measurement,setting,value
"Cc1cccc2c1CC[C@H](CN1CCC(c3c(Cl)cccc3Cl)CC1)C[C@@H]2O [SB-612111, reference compound]",effect per se on control twitches,[1]; 100 nM,did not modify per se the control twitches
same,Kb,"[1]; Mus musculus, read-out: SB-612111 pKB (CL95%), SB-612111 100 nM versus N/OFQ (converted)",3.31 nM
same,"SB-612111 pKB, literature",[2],8.50
DPDPE,pEC50,[3]; CL95% in brackets,8.45 (8.19-8.71)
same,Emax,[3]; maximal inhibition of electrically induced contractions,91 ± 3%
same,maximal effects,DOP receptor,86±14%
same,pEC50,KOP receptor,inactive
same,pEC50 (CL95%),human NOP receptor,inactive
same,Emax,[4],94 ± 3
same,pEC50,[4]; CL95% in brackets,8.42 (8.16-8.68)
same,pEC50,MOP receptor,inactive
Dynorphin A,pEC50 (CL95%),human NOP receptor,inactive
C[C@@H](NC(=O)[C@@H](N)Cc1ccc(O)cc1)C(=O)N[C@@H](Cc1ccccc1)C(=O)NCC(=O)N[C@@H](Cc1ccc(O)cc1)C(=O)N1CCC[C@H]1C(=O)N[C@@H](CO)C(N)=O [Dermorphin],pEC50,DOP receptor; inactive = inactive up to 1 μM,inactive
same,pEC50,KOP receptor,inactive
same,pEC50 (CL95%),human NOP receptor,inactive
